The values that follow come from PubChem BioAssay (NCI).

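Briefly, cells in 96-well plates were exposed to five compound concentrations for 48 h, and endpoints were estimated by linear interpolation. GI50 = concentration required for 50% inhibition of growth. The concentration for full growth arrest is given as TGI.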

Among the test systems are M14 melanoma; T-47D breast; SN12C renal; SK-MEL-2 melanoma; MALME-3M melanoma; SK-OV-3 ovarian; SK-MEL-5 melanoma; CAKI-1 renal; NCI/ADR-RES ovarian; 786-0 renal.
Common to all, as to experiment: growth of human tumour cells (NCI), 48 h

In the case of `CC1(C)N=C(N)N=C(N)N1c1ccc(CCCCc2ccc(Cl)c(S(=O)(=O)F)c2)c(Cl)c1`, the GI50 with M14 melanoma was 0.756 µM; in the assay with T-47D breast it was 3.11 µM; in the assay with SN12C renal, 0.306 µM; in the assay with SK-MEL-2 melanoma it was 2.45 µM; with MALME-3M melanoma it was 2.36 µM; in the assay on SK-OV-3 ovarian, 6.79 µM. The GI50 is 0.471 µM in the assay with SK-MEL-5 melanoma, 1.82 µM in the assay with CAKI-1 renal, 40 µM in the assay with NCI/ADR-RES ovarian and 1.63 µM with 786-0 renal. Further, the TGI was above 41.2 µM in the assay on M14 melanoma; 15.1 µM with T-47D breast; 16.2 µM in the assay with SN12C renal; above 33.6 µM in the assay with SK-MEL-2 melanoma; 12.5 µM with MALME-3M melanoma; 22.2 µM in the assay on SK-OV-3 ovarian. Further, the TGI is 11.8 µM in the assay with SK-MEL-5 melanoma, 10.5 µM with CAKI-1 renal, above 100 µM in the assay with NCI/ADR-RES ovarian and above 39.7 µM with 786-0 renal.

Regarding `COC(=O)c1cc2c(s1)-c1nccc3c1c(nc1ccccc13)C2=O`, the GI50 in the assay with M14 melanoma is 97.7 µM; in the assay on T-47D breast, 62.8 µM; with SN12C renal it was above 100 µM; in the assay with SK-MEL-2 melanoma, above 100 µM; with MALME-3M melanoma it was 16.4 µM; with SK-OV-3 ovarian it was above 100 µM. Moreover, the GI50 with SK-MEL-5 melanoma is 33.8 µM; in the assay with CAKI-1 renal it was above 100 µM; in the assay on NCI/ADR-RES ovarian, above 100 µM; with 786-0 renal, above 100 µM. Besides, the TGI was above 100 µM with M14 melanoma; above 100 µM with T-47D breast; above 100 µM with SN12C renal; above 100 µM in the assay with SK-MEL-2 melanoma; 59.5 µM in the assay on MALME-3M melanoma; above 100 µM in the assay on SK-OV-3 ovarian. Also, the TGI in the assay on SK-MEL-5 melanoma, with CAKI-1 renal, with NCI/ADR-RES ovarian and with 786-0 renal was above 100 µM in each case.

`COc1cc2c3c(c1OC)-c1cc4c(cc1CC3(C#N)N(C(=O)c1ccccc1)CC2)OCO4` (stereo not given): the TGI is above 100 µM in the assay with M14 melanoma; above 100 µM with T-47D breast; above 100 µM in the assay on SN12C renal; above 100 µM with SK-MEL-2 melanoma; 97.7 µM in the assay on MALME-3M melanoma; 44.4 µM with SK-OV-3 ovarian. Besides, the TGI in the assay with SK-MEL-5 melanoma is above 100 µM; with CAKI-1 renal, above 81 µM; with NCI/ADR-RES ovarian, above 100 µM; in the assay on 786-0 renal, 57.7 µM.

In the case of `COC12C(COC(N)=O)C3=C(C(=O)C(C)=C(N)C3=O)N1CC1C2N1C` (stereo not given), the TGI in the assay with M14 melanoma is 22.7 µM; in the assay on T-47D breast, 182 µM; in the assay on SN12C renal, 29.5 µM; in the assay with SK-MEL-2 melanoma, 31.2 µM; in the assay with MALME-3M melanoma it was 18.7 µM; in the assay on SK-OV-3 ovarian it was 49 µM. The TGI in the assay on SK-MEL-5 melanoma was 9.19 µM; with CAKI-1 renal it was 22 µM; in the assay on NCI/ADR-RES ovarian it was 268 µM; in the assay on 786-0 renal, 68.5 µM.

For `CCOC(=O)c1c(-c2ccc(OC)cc2)c(C#N)c2c(C#N)c(N)nn2c1N`, the GI50 in the assay with M14 melanoma is 3.26 µM; in the assay on T-47D breast, 2.93 µM; in the assay with SN12C renal, 4 µM; with SK-MEL-2 melanoma it was 3.35 µM; with MALME-3M melanoma, 4.05 µM; in the assay with SK-OV-3 ovarian, 3.49 µM. Further, the GI50 is 1.78 µM in the assay on SK-MEL-5 melanoma, 2.95 µM with CAKI-1 renal, 3.57 µM in the assay with NCI/ADR-RES ovarian and 3.85 µM in the assay with 786-0 renal. Also, the TGI in the assay with M14 melanoma was found to be 25.9 µM; with T-47D breast it was 33.1 µM; in the assay on SN12C renal it was 49 µM; in the assay on SK-MEL-2 melanoma it was 26.5 µM; with MALME-3M melanoma, 82.7 µM; with SK-OV-3 ovarian it was 19.1 µM. The TGI is 4.41 µM in the assay on SK-MEL-5 melanoma, above 100 µM with CAKI-1 renal, above 100 µM with NCI/ADR-RES ovarian and 23.3 µM in the assay on 786-0 renal.

Consider `O=C(CNS(=O)(=O)Cc1ccccc1)NNc1ccccc1`, for which the TGI in the assay on M14 melanoma, in the assay with T-47D breast, in the assay on SN12C renal, in the assay with SK-MEL-2 melanoma, in the assay with MALME-3M melanoma and in the assay on SK-OV-3 ovarian was above 100 µM throughout. Also, the TGI with SK-MEL-5 melanoma, in the assay with CAKI-1 renal, in the assay with NCI/ADR-RES ovarian and with 786-0 renal was above 100 µM each time.

With `C[C@@]12CCC[C@@](C)(C(=O)O)C1CC[C@]13CC(=O)[C@](CO)(C1)[C@@H](O)CC32` (stereo not given in full), the GI50 in the assay with M14 melanoma, in the assay on T-47D breast, in the assay with SN12C renal, with SK-MEL-2 melanoma, in the assay with MALME-3M melanoma and with SK-OV-3 ovarian was above 100 µM each time. For the same compound, the GI50 in the assay on SK-MEL-5 melanoma, with CAKI-1 renal, in the assay with NCI/ADR-RES ovarian and with 786-0 renal was above 100 µM in each case. The TGI in the assay on M14 melanoma, with T-47D breast, in the assay with SN12C renal, with SK-MEL-2 melanoma, in the assay with MALME-3M melanoma and in the assay on SK-OV-3 ovarian was above 100 µM in each case. In addition, the TGI with SK-MEL-5 melanoma, in the assay on CAKI-1 renal, in the assay on NCI/ADR-RES ovarian and in the assay with 786-0 renal was above 100 µM in each case.

With `COc1ccc(C2=C(c3ccc(OC)cc3)C(=O)N3CCCC3C2)cc1` (stereo not given), the GI50 in the assay with M14 melanoma is 28 µM; in the assay with T-47D breast, 28 µM; with SN12C renal, 22.5 µM; with SK-MEL-2 melanoma, 18.3 µM; with MALME-3M melanoma, 52.6 µM; with SK-OV-3 ovarian, 26.4 µM. Moreover, the GI50 is 10.1 µM with SK-MEL-5 melanoma, 21.1 µM in the assay with CAKI-1 renal, 10.3 µM with NCI/ADR-RES ovarian and 9.92 µM in the assay on 786-0 renal. Moreover, the TGI in the assay with M14 melanoma, with T-47D breast, in the assay with SN12C renal, in the assay on SK-MEL-2 melanoma, in the assay with MALME-3M melanoma and in the assay on SK-OV-3 ovarian was above 100 µM each time. The TGI with SK-MEL-5 melanoma is 84.3 µM; with CAKI-1 renal, above 100 µM; with NCI/ADR-RES ovarian, above 100 µM; in the assay with 786-0 renal it was above 100 µM.
